From the NIST ThermoML archive (doi:10.1021/je060271a)
Where “and” joins values, the source holds several entries; their conditions need not be identical. Equal entries are not always repeated.

Settings: 283.15 K, Liquid, Vibrating tube method

CCCCCC(=O)OCC(COC(=O)CCCCC)(COC(=O)CCCCC)COC(=O)CCCCC [pentaerythritol tetrahexanoate]
Settings | mass density
188.3 kPa | 1004.3 kg/m3
188.6 kPa | 1004.2 kg/m3
188.8 kPa | 1004.1 kg/m3
189.2 kPa | 1004.2 kg/m3
189.5 kPa | 1004.3 kg/m3
189.9 kPa | 1004.3 kg/m3
190.2 kPa | 1004.1 kg/m3
190.5 kPa | 1004.3 kg/m3
190.7 kPa | 1004.2 kg/m3
191.4 kPa | 1004.2 kg/m3
191.9 kPa | 1004.3 kg/m3
192.3 kPa | 1004.3 kg/m3 and 1004.2 kg/m3
192.6 kPa | 1004.4 kg/m3
192.8 kPa | 1004.2 kg/m3
193.1 kPa | 1004.2 kg/m3
193.3 kPa | 1004.2 kg/m3
193.8 kPa | 1004.2 kg/m3
194.4 kPa | 1004.2 kg/m3
194.7 kPa | 1004.3 kg/m3
195.1 kPa | 1004.3 kg/m3
195.2 kPa | 1004.2 kg/m3
195.8 kPa | 1004.2 kg/m3
195.9 kPa | 1004.2 kg/m3
196.3 kPa | 1004.3 kg/m3
196.8 kPa | 1004.3 kg/m3
197.1 kPa | 1004.2 kg/m3
197.3 kPa | 1004.2 kg/m3
197.5 kPa | 1004.1 kg/m3
197.8 kPa | 1004.3 kg/m3
198.2 kPa | 1004.2 kg/m3
198.7 kPa | 1004.3 kg/m3
198.9 kPa | 1004.3 kg/m3
199.2 kPa | 1004.2 kg/m3
199.6 kPa | 1004.4 kg/m3
200.3 kPa | 1004.3 kg/m3
200.8 kPa | 1004.1 kg/m3 and 1004.3 kg/m3
201 kPa | 1004.2 kg/m3
201.5 kPa | 1004.1 kg/m3
202 kPa | 1004.3 kg/m3
202.2 kPa | 1004.4 kg/m3
202.5 kPa | 1004.2 kg/m3
202.7 kPa | 1004.1 kg/m3
203.2 kPa | 1004.3 kg/m3
204.1 kPa | 1004.1 kg/m3
204.3 kPa | 1004.2 kg/m3
204.6 kPa | 1004.2 kg/m3
205.1 kPa | 1004.2 kg/m3
205.7 kPa | 1004.2 kg/m3
205.8 kPa | 1004.2 kg/m3
206.5 kPa | 1004.3 kg/m3 and 1004.2 kg/m3
207 kPa | 1004.1 kg/m3
208.6 kPa | 1004.2 kg/m3
208.8 kPa | 1004.3 kg/m3
209.3 kPa | 1004.2 kg/m3
209.6 kPa | 1004.2 kg/m3
210 kPa | 1004.2 kg/m3
210.5 kPa | 1004.3 kg/m3
211 kPa | 1004.2 kg/m3
211.6 kPa | 1004.3 kg/m3
212.1 kPa | 1004.2 kg/m3
212.4 kPa | 1004.3 kg/m3
212.8 kPa | 1004.3 kg/m3
212.9 kPa | 1004.2 kg/m3
213.5 kPa | 1004.3 kg/m3
213.8 kPa | 1004.2 kg/m3
214.5 kPa | 1004.3 kg/m3
215.2 kPa | 1004.3 kg/m3
215.7 kPa | 1004.2 kg/m3
216.2 kPa | 1004.3 kg/m3
216.8 kPa | 1004.2 kg/m3
217.5 kPa | 1004.2 kg/m3
219 kPa | 1004.1 kg/m3
219.4 kPa | 1004.3 kg/m3
